# Measured values reported in patent US5147878A, “Aminoalkoxyphenyl derivatives, process of preparation and compositions containing the same” (Sanofi, priority 1986, dated 1992).
# Where a name gives a salt, the structure may show the parent alone.
# Tested on: isolated rat aorta
# Experiment: Calcium inhibitory properties: contractile response to potassium-induced depolarization on isolated rat aorta
# Parameters: species or system isolated organ, male Wistar rats
# Conditions: for activity at 1 µM / activity at 0.1 µM / activity at 0.01 µM / activity at 0.001 µM: Rattus norvegicus, 1 h, read-out: % of the maximum contractional effect; for % of the maximum contractional effect: 60 min; for activity at 0.001 µM: 10^-9 M
# Description: It is well established that the depolarization of a smooth muscle membrane by potassium renders the latter permeable to extracellular calcium and induces muscle contraction. Consequently, the measurement of the inhibition of the contractile response to depolarization by potassium, or the measurement of a relaxation of the tonic contraction on potassium depolarization, can represent an evaluation of the power of a compound as an inhibitor of the membrane permeability to Ca^++ ions. The technique used was as follows: The aorta was removed from male Wistar rats weighing approximately 300 g, and cut into strips approximately 40 mm long and 3 mm wide. These fragments were placed in a 25-ml isolated organ trough containing a modified Krebs-bicarbonate solution (112 mM NaCl; 5 mM KCl; 25 mM NaHCO3; 1 mM KH2 PO4; 1.2 mM MgSO4; 2.5 mM CaCl2; 11.5 mM glucose, distilled water to 1000 ml) through which a stream of 5-7% carbon dioxide in oxygen was passed, and maintained at 37° C. The preparation was connected to a force microsensor and the contractile response recorded after amplification on a recorder. A tension of 2 g was applied to the preparation. This tension was maintained for 60 minutes in the modified Krebs-bicarbonate solution, and contractions were then induced by replacing the Krebs-bicarbonate solution by a potassium-Krebs solution (17 mM NaCl; 100 mM KCl; 25 mM NaHCO3; 1 mM KH2 PO4; 1.2 mM MgSO4; 2.5 mM CaCl2; 11.5 mM glucose; distilled water to 1000 ml). When the contractile response of the preparation had become reproducible, a given amount of a compound of the invention was introduced into the bath. Sixty minutes later, a new spasm was induced by potassium depolarization. The results obtained on the aorta used in the experiment were then expressed as a percentage of the maximum contractional effect before incubation with the test substance. By way of examples, the results which follow were obtained, the compounds of formula (1) being in the form of the base, hydrochloride or oxalate.
# [1] = head printed "10^-" (exponent missing; first of three columns before 10^-6 M)
Compound,activity at 1 µM (10^-6 M) [%],activity at 0.1 µM (10^-7 M) [%],% of the maximum contractional effect [1] [%],activity at 0.01 µM (10^-8 M) [%],activity at 0.001 µM [%],"% of the maximum contractional effect (10^-6 M, 1 µM) [%]","% of the maximum contractional effect (10^-7 M, 0.1 µM) [%]","% of the maximum contractional effect (10^-8 M, 0.01 µM) [%]"
"COc1ccc(CCN(C)CCCOc2ccc(Sc3cnnc4ccccc34)cc2)cc1OC [Ex. 80, 4-[4-{3-[N-methyl-N-(3,4-dimethoxy-β-phenethyl)amino]propyloxy}phenylthio]cinnoline oxalate]",64.2,85.4,3.0,–,–,–,–,–
"COc1ccc(CCN(C)CCCOc2ccc(S(=O)(=O)c3cc4ccccc4nn3)cc2)cc1OC [Ex. 81, 3-[4-{3-[N-methyl-N-(3,4-dimethoxy-β-phenethyl)amino]propyloxy}benzenesulphonyl]cinnoline oxalate]",73.1,86.6,19.2,–,–,–,–,–
"COc1ccc(CCN(C)CCCOc2ccc(Sc3cc4ccccc4nn3)cc2)cc1OC [Ex. 82, 3-[4-{3-[N-methyl-N-(3,4-dimethoxy-β-phenethyl)amio]propyloxy}phenylthio]cinnoline oxalate]",55,90.2,6.7,–,–,–,–,–
"COc1ccc(CN(C)CCCOc2ccc(S(=O)(=O)c3c(C(C)C)oc4ccccc34)cc2)cc1OC [Ex. 88, 2-isopropyl-3-[4-{3-[N-methyl-N-(3,4-dimethoxy-benzyl)amino)propyloxy}benzenesulphonyl]benzofuran acid oxalate]",8.7,11.2,–,61.9,87,–,–,–
"COc1ccc(CN(C)CCOc2ccc(S(=O)(=O)c3c(C(C)C)oc4ccccc34)cc2)cc1OC [Ex. 89, 2-Isopropyl-3-[4-{2-[N-methyl-N-(3,4-dimethoxy-benzyl)amino]ethyloxy}benzenesulphonylbenzofuran hemioxalate]",–,4.7,–,53.3,83.9,–,–,–
"COc1ccc(CCN(C)CCCOc2ccc(S(=O)(=O)c3c(C(C)C)oc4ccccc34)cc2)cc1OC.O=C(O)C(=O)O [Ex. 90, 2-Isopropyl-3-[4-{3-[N-methyl-N-(3,4-dimethoxy-β-phenethyl)amino]propyloxy}benzenesulphonyl]benzofuran acid oxalate]",–,–,–,–,–,0,21.3,56.9
"COc1ccc(CCN(C)CCOc2ccc(S(=O)(=O)c3c(C(C)C)oc4ccccc34)cc2)cc1OC [Ex. 91, 2-Isopropyl-3-[4-{2-[N-methyl-N-(3,4-dimethoxy-β-phenethyl)amino]ethyloxy}benzenesulphonylbenzofuran hemioxalate]",–,11.1,–,53.9,–,–,–,–
"COc1ccc(CN(C)CCCCOc2ccc(S(=O)(=O)c3c(C(C)C)oc4ccccc34)cc2)cc1OC [Ex. 92, 2-Isopropyl-3-[4-{4-[N-methyl-N-(3,4-dimethoxy-benzyl)amino]butyloxy}benzenesulphonyl]benzofuran hemioxalate]",3.8,31.5,–,61,80.8,–,–,–
"COc1ccc(CCN(C)CCCCOc2ccc(S(=O)(=O)c3c(C(C)C)oc4ccccc34)cc2)cc1OC [Ex. 93, 2-Isopropyl-3-[4-{4-[N-methyl-N-(3,4-dimethoxy-β-phenethyl)amino]butyloxy}benzenesulphonyl]benzofuran acid oxalate]",–,33.6,–,53.1,–,–,–,–
"CC(C)c1oc2ccccc2c1S(=O)(=O)c1ccc(OCCCNCCc2ccc3c(c2)OCO3)cc1.O=C(O)C(=O)O [Ex. 95, 2-Isopropyl-3-[4-{3-[N-[3-(1,3-benzodioxolyl)]-β-ethyl]amino]propyloxy}benzenesulphonyl benzofuran acid oxalate]",–,–,–,–,–,13.6,50.6,81.4
"COc1ccc(CCN(C)CCCOc2ccc(S(=O)(=O)c3nccn3C(C)C)cc2)cc1OC [Ex. 96, 1-isopropyl-2-[4-{3-[N-methyl-N-(3,4-dimethoxy-β-phenethyl)amino]propyloxy}benzenesulphonyl]imidazole dihydrochloride]",92.4,87.3,65.8,–,–,–,–,–
"COc1ccc(CCN(C)CCCOc2ccc(S(=O)(=O)c3nccn3Cc3ccccc3)cc2)cc1OC [Ex. 97, 1-benzyl-2-[4-{3-[N-methyl-N-(3,4-dimethoxy-β-phenethyl)amino]propyloxy}benzenesulphonyl]imidazole acid oxalate]",66.7,87.5,23.5,–,–,–,–,–
"COc1ccc(CCN(C)CCCOc2ccc(S(=O)(=O)c3cn[nH]c3C(C)C)cc2)cc1OC [Ex. 100, 4-[4-{3-[N-methyl-N-(3,4-dimethoxy-β-phenethyl)amino]propyloxy}benzenesulphonyl]-5-isopropyl-pyrazole acid oxalate]",62.5,87.6,15.1,–,–,–,–,–
"COc1ccc(CCN(C)CCCOc2ccc(S(=O)(=O)c3ccc4ccccc4c3)cc2)cc1OC [Ex. 103, 2-[4-{3-[N-methyl-N-(3,4-dimethoxy-β-phenethyl)amino]propyloxy}benzenesulphonyl]-naphthalene acid oxalate]",16.8,62.8,–,83.3,–,–,–,–
"COc1ccc(CCN(C)CCCOc2ccc(S(=O)(=O)c3c(C(C)C)[nH]c4ccccc34)cc2)cc1OC [Ex. 105, 2-isopropyl-3-[4-{3-[N-methyl-N-(3,4-dimethoxy-β-phenethyl)amino]propyloxy}benzenesulphonyl]indole hemioxalate]",–,11.9,–,62.9,83.6,–,–,–
"CCCCN(CCCC)CCCOc1ccc(S(=O)(=O)c2c(C(C)C)[nH]c3ccccc23)cc1 [Ex. 106, 2-Isopropyl-3-{4-[3-(di-n-butylamino)propyloxy]benzenesulphonyl}indole acid]",4.9,37.4,–,66,–,–,–,–
"COc1ccc(CCN(C)CCCOc2ccc(S(=O)(=O)c3c(C(C)C)n(C)c4ccccc34)cc2)cc1OC [Ex. 109, 1-methyl-2-isopropyl-3-[4-{3-[N-methyl-N-(3,4-dimethoxy-β-phenethyl)amino]propyloxy}benzenesulphonyl]indole]",0,5.1,–,34.5,71.4,–,–,–
"CCCCN(CCCC)CCCOc1ccc(S(=O)(=O)c2c(C(C)C)n(C)c3ccccc23)cc1 [Ex. 110, 1-Methyl-2-isopropyl-3-{4-[3-(di-n-butylamino)propyloxy]benzenesulphonyl}indole acid oxalate]",0,15.1,–,71,84.6,–,–,–
"COc1ccc(CN(C)CCCOc2ccc(S(=O)(=O)c3c(C(C)C)n(C)c4ccccc34)cc2)cc1OC [Ex. 111, 1-Methyl-2-isopropyl-3-[4-{3-[N-methyl-N-(3,4-dimethoxy-benzyl)amino]propyloxy}benzenesulphonyl]indole acid oxalate]",–,11.8,–,25,81.8,–,–,–
"CC(C)c1c(S(=O)(=O)c2ccc(OCCCNC(C)(C)C)cc2)c2ccccc2n1C [Ex. 112, 1-methyl-2-isopropyl-3-[4-{3-(tert-butylamino)propyloxy}benzenesulphonyl]indole]",8.1,51.7,–,84.5,–,–,–,–
"COc1ccc(CCN(C)CCCOc2ccc(S(=O)(=O)c3c(C(C)C)c4ccccc4n3C)cc2)cc1OC [Ex. 113, 1-methyl-3-isopropyl-2-[4-{3-[N-methyl-N-(3,4-dimethoxy-β-phenethyl)amino]propyloxy}benzenesulphonyl]indole acid oxalate]",–,–,–,41.1,–,–,–,–
"COc1ccc(CCN(C)CCCOc2ccc(S(=O)(=O)c3ccccc3C(C)C)cc2)cc1OC [Ex. 114, 2-isopropyl-1-[4-{3-[N-methyl-N-(3,4-dimethoxy-β-phenethyl)amino]propyloxy}benzenesulphonyl]benzene acid oxalate]",3.7,21.7,–,59.3,93.3,–,–,–
"CCCCN(CCCC)CCCOc1ccc(S(=O)(=O)c2ccccc2C(C)C)cc1 [Ex. 115, 2-Isopropyl-1-{4-[3-(di-n-butylamino)propyloxy]benzenesulphonyl}benzene acid oxalate]",–,43.2,–,–,89.1,–,–,–
